{
  "source": "patent US4204038A",
  "about": "“Process for preparing antibiotics MA 144-M1 and MA 144-M2” (Zaidan Hojin Biseibutsu Kagaku Kenkyu Kai, priority 1976, dated 1980)",
  "assay": "Solubility",
  "note": "Where a name gives a salt, the structure may show the parent alone.",
  "data": [
    {"smiles": "CCC1(O)CC(OC2CC(N(C)C)C(OC3CC(O)C(OC4CCC(O)C(C)O4)C(C)O3)C(C)O2)c2c(cc3c(c2O)C(=O)c2c(O)cccc2C3=O)C1C(=O)OC", "note": "(centres unmarked) [MA 144-M1 hydrochloride salt]", "values": [
      {"measurement": "solubility: slightly soluble in", "value": "slightly soluble in acetone and ethyl acetate"},
      {"measurement": "solubility: soluble in", "value": "soluble in water, methanol and chloroform"}
    ]}
  ]
}
